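96-well plates; 48 h exposure; 5 concentrations. Endpoints by linear interpolation between flanking doses. Not reached: highest tested concentration assigned. The concentration for 50% growth inhibition is given as GI50.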 The source made the active and inactive calls. No stated cut-off is given here; in the data, active = GI50 up to about 1.1 µM and inactive = higher.
What was measured:
Assay in all cases: DTP human tumour cell line panel, 48 h
RPMI-8226 = test system: RPMI-8226
CAKI-1 = test system: CAKI-1
OVCAR-4 = test system: OVCAR-4
OVCAR-3 = test system: OVCAR-3
A498 = test system: A498
OVCAR-5 = test system: OVCAR-5
SN12C = test system: SN12C
SNB-75 = test system: SNB-75
SNB-19 = test system: SNB-19
NCI-H522 = test system: NCI-H522
IGROV-1 = test system: IGROV-1
HCT-116 = test system: HCT-116
SK-MEL-2 = test system: SK-MEL-2
ACHN = test system: ACHN
U-251 = test system: U-251
HCC 2998 = test system: HCC 2998
KM12 = test system: KM12

SMILES	GI50 (RPMI-8226)	GI50 (CAKI-1)	GI50 (OVCAR-4)	GI50 (OVCAR-3)	GI50 (A498)	GI50 (OVCAR-5)	GI50 (SN12C)	GI50 (SNB-75)	GI50 (SNB-19)	GI50 (NCI-H522)	GI50 (IGROV-1)	GI50 (HCT-116)	GI50 (SK-MEL-2)	GI50 (ACHN)	GI50 (U-251)	GI50 (HCC 2998)	GI50 (KM12)
NC(=O)CCC(NC(=O)C(F)(F)F)C(=O)O (stereo unspecified)	> 100 µM (inactive)	> 100 µM (inactive)	> 100 µM (inactive)	> 100 µM (inactive)	> 100 µM (inactive)	> 100 µM (inactive)	> 100 µM (inactive)	> 100 µM (inactive)	> 100 µM (inactive)	> 100 µM (inactive)	> 100 µM (inactive)	> 100 µM (inactive)	> 100 µM (inactive)	> 100 µM (inactive)	> 100 µM (inactive)	> 100 µM (inactive)	> 100 µM (inactive)
c1cnc2c(c1)-n1cccc1C1(CCSCC1)NN2	> 100 µM (inactive)	88.5 µM (inactive)	> 100 µM (inactive)	> 100 µM (inactive)		> 100 µM (inactive)	> 100 µM (inactive)	53.5 µM (inactive)	> 100 µM (inactive)	95.3 µM (inactive)		> 100 µM (inactive)	> 100 µM (inactive)	> 100 µM (inactive)		> 100 µM (inactive)	> 100 µM (inactive)
CCOC(=O)COc1ccc(OCC(=O)OCC)c2c1C(=O)CCCC2=O	> 100 µM (inactive)			> 100 µM (inactive)	0.281 µM (active)	> 100 µM (inactive)	> 100 µM (inactive)	> 100 µM (inactive)	> 100 µM (inactive)	> 100 µM (inactive)	3.13 µM (inactive)	> 100 µM (inactive)	> 100 µM (inactive)	> 100 µM (inactive)	> 100 µM (inactive)	> 100 µM (inactive)	> 100 µM (inactive)
CCCCCCCCCCCCCC(=O)NCO	> 100 µM (inactive)		> 100 µM (inactive)	> 100 µM (inactive)	> 100 µM (inactive)	> 100 µM (inactive)	> 100 µM (inactive)	> 100 µM (inactive)	> 100 µM (inactive)	86.3 µM (inactive)	> 100 µM (inactive)	> 100 µM (inactive)	> 100 µM (inactive)	> 100 µM (inactive)	> 100 µM (inactive)	> 100 µM (inactive)	> 100 µM (inactive)
COc1ccc(N2C(=O)C3c4[nH]c5ccccc5c4C4CC(C)(C)CC(C)(C)C4C3C2=O)cc1 (stereo unspecified)	31.8 µM (inactive)		10.2 µM (inactive)		14.5 µM (inactive)		16 µM (inactive)	16.8 µM (inactive)	23.7 µM (inactive)	17.2 µM (inactive)	22.9 µM (inactive)	13.5 µM (inactive)		14.9 µM (inactive)	16.8 µM (inactive)	33.6 µM (inactive)	
CC(=O)C1=NN(c2ccccc2)C2(S1)SC(c1ccccc1)(c1ccccc1)c1ccccc12 (stereo unspecified)	44.1 µM (inactive)		24.2 µM (inactive)	51.3 µM (inactive)	89.7 µM (inactive)		> 100 µM (inactive)	19.3 µM (inactive)	62.2 µM (inactive)	22.9 µM (inactive)	33.1 µM (inactive)	24.4 µM (inactive)	27 µM (inactive)	42.3 µM (inactive)	44.7 µM (inactive)	> 100 µM (inactive)	74.5 µM (inactive)
CC(=O)NNc1nc(C)c(C(=O)/C=C/c2ccc(/C=C/C(=O)c3sc(NNC(C)=O)nc3C)cc2)s1		> 100 µM (inactive)	> 100 µM (inactive)	> 100 µM (inactive)		> 100 µM (inactive)	> 100 µM (inactive)		> 100 µM (inactive)	> 100 µM (inactive)	> 100 µM (inactive)	> 100 µM (inactive)	> 100 µM (inactive)	> 100 µM (inactive)	> 100 µM (inactive)	> 100 µM (inactive)	> 100 µM (inactive)
CC/C=C\C/C=C\C1CC(=O)NCCCNCCCCN1 (stereo unspecified)		> 100 µM (inactive)	> 100 µM (inactive)			> 100 µM (inactive)	> 100 µM (inactive)	> 100 µM (inactive)	> 100 µM (inactive)	55.3 µM (inactive)		> 100 µM (inactive)	68.9 µM (inactive)		> 100 µM (inactive)	> 100 µM (inactive)	> 100 µM (inactive)
COC(=O)C1CCc2nnc(-c3cccnc3)n21 (stereo unspecified)	> 100 µM (inactive)	> 100 µM (inactive)	> 100 µM (inactive)	> 100 µM (inactive)	> 100 µM (inactive)		> 100 µM (inactive)	> 100 µM (inactive)	> 100 µM (inactive)	> 100 µM (inactive)	> 100 µM (inactive)	> 100 µM (inactive)	> 100 µM (inactive)	> 100 µM (inactive)	> 100 µM (inactive)	> 100 µM (inactive)	> 100 µM (inactive)

From ChEMBL document CHEMBL1201862, “PubChem BioAssay data set” (2004)
